For data set [1] the following is noted: other bond, 13-membered ring, THF.
In data set [2] the target is T1, Phospho-EGFR (Tyr1068) in H1975 cells (Homo sapiens, UniProt P00533, L858R/T790M).
T1 construct: host or cells: H1975
The data set is described as follows: HTRF pEGFR/total EGFR in H1975 cells. The format is cell-based. To be noted: ratio pEGFR/total EGFR, compound 3 hours. In a few lines:
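Readout is the phospho-EGFR (Tyr1068) to total EGFR HTRF ratio, expressed relative to 0 μM control. Adhered H1975 cells were exposed to compound for 3 hours at 0.1% DMSO, duplicate wells, then lysed for 30 min at room temperature before two-wavelength fluorescence reading.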

Data set [3] concerns the target T2, Phospho-EGFR (Tyr1068) in H1975 C797S cells (CRISPR-edited EGFR C797S) (Homo sapiens, UniProt P00533, C797S/L858R/T790M).
T2 construct: host or cells: H1975 C797S (CRISPR-edited)
The experiment in a line: HTRF pEGFR/total EGFR in H1975 C797S cells. In kind it is cell-based. To be noted: ratio pEGFR/total EGFR, compound 3 hours. A digest of the protocol:
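Readout is the HTRF-measured Tyr1068 phospho-EGFR to total EGFR ratio, normalised to the 0 μM control as percent. Preceding this, CRISPR-edited H1975 C797S cells, plated 24 h earlier, were exposed 3 h to duplicate compound doses in medium with 0.1% DMSO, then lysed on a shaker.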
Background: In TR-FRET formats the signal depends on donor and acceptor labels being close together.

Data set [4] has as its target T3, Phospho-EGFR (Tyr1068) in A431 cells (Homo sapiens, UniProt P00533).
T3 construct: endogenous in cells; host or cells: A431
The experiment in a line: HTRF pEGFR/total EGFR in A431 cells with EGF stimulation. In kind it is cell-based. To be noted: ratio pEGFR/total EGFR, compound 2.5 hours then 100 ng/ml EGF 30 mins. In a few lines: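 Values are pEGFR(Tyr1068)/total EGFR HTRF ratios (665/620 nm) given as percent of the 0 μM control. Adhered A431 cells (20,000 per well, 24 h) had 2.5 h compound pretreatment in 0.1% DMSO, then 30 min of 100 ng/ml EGF before lysis.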

Data set [5] addresses CtermHisTag-mEGFR Wild type (Homo sapiens, UniProt P00533). The experiment in a line: biochemical.

Where two headings read alike, the source gives them in different places. Bounds are passed on as bounds.

Sequence of CtermHisTag-mEGFR Wild type (P00533 whole entry): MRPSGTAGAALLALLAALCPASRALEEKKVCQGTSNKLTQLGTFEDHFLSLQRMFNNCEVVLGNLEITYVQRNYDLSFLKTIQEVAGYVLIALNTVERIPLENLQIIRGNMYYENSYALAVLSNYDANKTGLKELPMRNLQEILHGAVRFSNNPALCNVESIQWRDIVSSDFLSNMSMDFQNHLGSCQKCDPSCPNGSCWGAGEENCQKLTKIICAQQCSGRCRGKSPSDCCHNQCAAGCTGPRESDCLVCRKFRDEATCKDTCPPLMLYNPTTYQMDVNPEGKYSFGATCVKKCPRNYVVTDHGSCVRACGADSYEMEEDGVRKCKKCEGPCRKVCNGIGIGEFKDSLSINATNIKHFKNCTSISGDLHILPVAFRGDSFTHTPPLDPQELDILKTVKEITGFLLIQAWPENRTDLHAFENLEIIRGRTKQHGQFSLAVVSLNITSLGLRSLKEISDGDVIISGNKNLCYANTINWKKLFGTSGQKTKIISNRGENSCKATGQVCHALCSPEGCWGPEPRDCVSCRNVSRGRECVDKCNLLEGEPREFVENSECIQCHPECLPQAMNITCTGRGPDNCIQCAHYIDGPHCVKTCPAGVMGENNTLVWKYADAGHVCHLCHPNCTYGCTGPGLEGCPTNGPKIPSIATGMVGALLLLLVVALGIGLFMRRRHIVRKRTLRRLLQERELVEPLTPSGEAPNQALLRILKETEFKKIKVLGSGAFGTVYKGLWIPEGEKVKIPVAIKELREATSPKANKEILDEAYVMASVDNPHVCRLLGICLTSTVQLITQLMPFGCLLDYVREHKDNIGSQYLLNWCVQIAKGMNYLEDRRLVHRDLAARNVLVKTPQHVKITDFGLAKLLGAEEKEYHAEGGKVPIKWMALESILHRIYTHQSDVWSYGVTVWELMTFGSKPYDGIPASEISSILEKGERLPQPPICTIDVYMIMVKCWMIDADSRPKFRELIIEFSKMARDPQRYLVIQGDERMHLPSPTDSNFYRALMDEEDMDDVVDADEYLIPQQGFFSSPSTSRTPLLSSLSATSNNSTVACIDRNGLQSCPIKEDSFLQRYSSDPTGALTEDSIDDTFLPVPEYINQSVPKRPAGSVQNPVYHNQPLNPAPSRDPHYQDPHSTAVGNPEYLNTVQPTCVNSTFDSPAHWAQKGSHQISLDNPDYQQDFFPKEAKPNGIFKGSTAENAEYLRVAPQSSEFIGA
T2 sequence (P00533 25-1210 T790M/C797S/L858R): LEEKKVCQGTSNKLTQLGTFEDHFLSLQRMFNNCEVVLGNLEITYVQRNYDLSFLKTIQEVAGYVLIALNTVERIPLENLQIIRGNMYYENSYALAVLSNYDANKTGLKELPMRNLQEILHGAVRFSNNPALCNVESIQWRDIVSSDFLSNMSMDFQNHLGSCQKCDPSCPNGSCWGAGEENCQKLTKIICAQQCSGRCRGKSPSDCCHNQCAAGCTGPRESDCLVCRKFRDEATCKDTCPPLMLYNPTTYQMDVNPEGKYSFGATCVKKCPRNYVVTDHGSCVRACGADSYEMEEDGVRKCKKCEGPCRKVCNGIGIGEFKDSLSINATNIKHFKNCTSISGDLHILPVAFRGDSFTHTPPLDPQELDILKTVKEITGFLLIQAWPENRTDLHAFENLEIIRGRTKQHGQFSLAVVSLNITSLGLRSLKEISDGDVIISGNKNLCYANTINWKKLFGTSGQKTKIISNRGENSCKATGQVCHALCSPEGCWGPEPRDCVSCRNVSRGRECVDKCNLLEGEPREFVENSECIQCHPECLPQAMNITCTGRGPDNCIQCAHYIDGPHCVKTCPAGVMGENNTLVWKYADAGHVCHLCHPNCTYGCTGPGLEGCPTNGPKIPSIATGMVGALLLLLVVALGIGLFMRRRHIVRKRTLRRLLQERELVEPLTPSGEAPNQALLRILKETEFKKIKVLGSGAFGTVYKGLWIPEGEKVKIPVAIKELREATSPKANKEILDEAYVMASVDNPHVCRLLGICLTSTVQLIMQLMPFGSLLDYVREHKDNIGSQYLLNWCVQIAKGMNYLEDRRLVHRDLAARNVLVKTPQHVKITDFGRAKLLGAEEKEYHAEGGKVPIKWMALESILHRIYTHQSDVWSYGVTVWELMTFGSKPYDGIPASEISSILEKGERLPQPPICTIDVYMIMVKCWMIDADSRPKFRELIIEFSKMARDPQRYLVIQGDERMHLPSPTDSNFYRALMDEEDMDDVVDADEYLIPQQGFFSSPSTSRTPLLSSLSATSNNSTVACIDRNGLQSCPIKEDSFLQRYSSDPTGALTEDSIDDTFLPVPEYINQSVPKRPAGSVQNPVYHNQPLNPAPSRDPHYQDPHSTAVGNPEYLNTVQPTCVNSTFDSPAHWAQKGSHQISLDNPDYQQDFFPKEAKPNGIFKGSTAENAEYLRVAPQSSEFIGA
T3 sequence (P00533 25-1210): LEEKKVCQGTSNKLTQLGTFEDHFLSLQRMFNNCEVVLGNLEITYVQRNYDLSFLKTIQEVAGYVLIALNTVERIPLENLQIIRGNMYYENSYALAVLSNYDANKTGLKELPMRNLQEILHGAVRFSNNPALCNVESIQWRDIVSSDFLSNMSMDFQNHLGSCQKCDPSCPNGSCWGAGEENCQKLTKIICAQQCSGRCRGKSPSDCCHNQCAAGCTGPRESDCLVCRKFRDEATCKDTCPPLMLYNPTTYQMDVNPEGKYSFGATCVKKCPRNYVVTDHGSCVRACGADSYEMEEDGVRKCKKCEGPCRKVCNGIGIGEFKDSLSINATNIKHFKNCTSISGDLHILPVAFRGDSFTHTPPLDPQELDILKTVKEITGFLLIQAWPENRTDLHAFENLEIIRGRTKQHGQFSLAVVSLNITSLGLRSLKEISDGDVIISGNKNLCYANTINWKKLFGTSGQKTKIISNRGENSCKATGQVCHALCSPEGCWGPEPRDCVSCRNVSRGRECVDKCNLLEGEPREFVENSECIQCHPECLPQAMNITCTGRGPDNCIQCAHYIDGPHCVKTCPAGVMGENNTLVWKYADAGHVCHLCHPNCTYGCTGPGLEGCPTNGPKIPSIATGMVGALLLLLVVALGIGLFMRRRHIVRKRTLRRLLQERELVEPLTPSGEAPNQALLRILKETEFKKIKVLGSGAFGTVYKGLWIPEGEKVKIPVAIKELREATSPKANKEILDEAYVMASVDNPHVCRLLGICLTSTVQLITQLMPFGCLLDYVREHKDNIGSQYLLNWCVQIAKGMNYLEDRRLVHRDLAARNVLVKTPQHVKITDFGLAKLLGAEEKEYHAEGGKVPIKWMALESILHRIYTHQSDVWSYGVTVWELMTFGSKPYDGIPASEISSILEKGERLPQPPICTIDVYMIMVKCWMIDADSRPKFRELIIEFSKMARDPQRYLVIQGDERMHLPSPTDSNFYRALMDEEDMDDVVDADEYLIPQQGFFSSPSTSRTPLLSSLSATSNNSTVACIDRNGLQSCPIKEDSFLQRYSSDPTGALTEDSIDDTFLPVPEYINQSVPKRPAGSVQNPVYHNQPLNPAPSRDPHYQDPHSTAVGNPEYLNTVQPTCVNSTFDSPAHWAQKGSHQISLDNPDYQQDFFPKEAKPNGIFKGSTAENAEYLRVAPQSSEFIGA
T1 sequence (P00533 25-1210 T790M/L858R): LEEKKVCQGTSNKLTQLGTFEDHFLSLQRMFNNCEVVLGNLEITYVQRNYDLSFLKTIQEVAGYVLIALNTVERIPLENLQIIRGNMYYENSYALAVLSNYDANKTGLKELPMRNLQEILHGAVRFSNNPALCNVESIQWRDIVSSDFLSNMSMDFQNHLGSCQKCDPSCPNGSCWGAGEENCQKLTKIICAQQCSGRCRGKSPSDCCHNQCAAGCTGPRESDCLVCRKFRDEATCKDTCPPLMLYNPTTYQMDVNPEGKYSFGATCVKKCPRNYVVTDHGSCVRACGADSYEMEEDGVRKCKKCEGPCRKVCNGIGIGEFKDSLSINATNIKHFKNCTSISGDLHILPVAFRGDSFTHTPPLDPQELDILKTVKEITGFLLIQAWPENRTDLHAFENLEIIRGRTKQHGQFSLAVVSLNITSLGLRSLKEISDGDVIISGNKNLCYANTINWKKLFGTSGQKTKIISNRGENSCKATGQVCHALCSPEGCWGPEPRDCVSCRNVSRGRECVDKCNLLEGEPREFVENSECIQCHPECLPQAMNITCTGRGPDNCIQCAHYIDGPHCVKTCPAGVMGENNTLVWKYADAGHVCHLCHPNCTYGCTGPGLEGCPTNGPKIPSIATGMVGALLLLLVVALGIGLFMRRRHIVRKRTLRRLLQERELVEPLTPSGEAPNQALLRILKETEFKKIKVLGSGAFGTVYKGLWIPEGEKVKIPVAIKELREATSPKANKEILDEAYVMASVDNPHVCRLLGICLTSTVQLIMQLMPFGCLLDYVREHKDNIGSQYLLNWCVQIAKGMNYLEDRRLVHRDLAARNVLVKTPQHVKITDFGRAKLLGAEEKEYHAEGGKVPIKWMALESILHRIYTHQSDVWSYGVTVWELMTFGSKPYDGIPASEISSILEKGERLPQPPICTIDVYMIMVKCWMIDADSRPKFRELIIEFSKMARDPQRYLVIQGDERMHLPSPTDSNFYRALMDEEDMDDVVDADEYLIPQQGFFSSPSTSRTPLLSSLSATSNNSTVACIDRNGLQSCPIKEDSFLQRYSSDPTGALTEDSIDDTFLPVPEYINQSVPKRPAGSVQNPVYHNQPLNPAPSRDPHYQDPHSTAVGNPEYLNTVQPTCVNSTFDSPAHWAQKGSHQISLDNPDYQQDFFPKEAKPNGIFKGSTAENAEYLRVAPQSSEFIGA

As to `CC(C)N1CCN(c2ccc3cc2NC(=O)CCCn2c(=O)cc(C#C[Si](C(C)C)(C(C)C)C(C)C)c4cnc(nc42)N3)CC1`, the ring closure, isolated yield in data set [1] (from CC(C)N1CCN(c2ccc(Nc3ncc4c(C#C[Si](C(C)C)(C(C)C)C(C)C)cc(=O)[nH]c4n3)cc2NC(=O)CCCO)CC1, PPh3/DEAD, 72.2 mM) amounted to 44%.
`CC(C)[Si](C#Cc1cc(=O)n2c3nc(ncc13)Nc1ccc(N3CCCN(C)CC3)c(c1)NC(=O)CCC2)(C(C)C)C(C)C`: the ring closure, isolated yield in data set [1] (from CC(C)[Si](C#Cc1cc(=O)[nH]c2nc(Nc3ccc(N4CCCN(C)CC4)c(NC(=O)CCCO)c3)ncc12)(C(C)C)C(C)C, PPh3/DEAD, 31.7 mM) turned out to be 41%.
Compound `CC(C)[Si](C#Cc1cc(=O)n2c3nc(ncc13)Nc1ccc(N3CCN(C)CC3)c(c1)CC(=O)NCC2)(C(C)C)C(C)C` registered a ring closure, isolated yield in data set [1] (from CC(C)[Si](C#Cc1cc(=O)[nH]c2nc(Nc3ccc(N4CCN(C)CC4)c(CC(=O)NCCO)c3)ncc12)(C(C)C)C(C)C, PPh3/DIAD, 24.0 mM) of 43%.
In the case of `C#Cc1cc(=O)n2c3nc(ncc13)Nc1ccc(N3CCN(C)CC3)c(c1)N(C)C(=O)CCC2` [Example 225, 1^5-Ethynyl-4-methyl-3^4-(4-methylpiperazin-1-yl)-1^7,1^8-dihydro-2,4-diaza-1(2,8)-pyrido[2,3-d]pyrimidina-3(1,3)-benzenacyclooctaphane-1^7,5-dione], the half-inhibitory concentration (IC50) (as a rule, the point on the concentration scale where inhibition reaches its midpoint) is 1000 to 3000 nM in data set [2], 1000 to 3000 nM in data set [3], > 3000 nM in data set [4] and > 10000 nM in data set [5].
On to `C#Cc1cc(=O)n2c3nc(ncc13)Nc1ccc(N3CCN(C)CC3)c(c1)CN(C)CCC2` [Example 226, 1^5-Ethynyl-5-methyl-3^4-(4-methylpiperazin-1-yl)-1^7,1^8-dihydro-2,5-diaza-1(2,8)-pyrido[2,3-d]pyrimidina-3(1,3)-benzenacyclooctaphan-1^7-one], for which the IC50 in data set [2] was < 500 nM; in data set [3] it was < 500 nM; in data set [4] it was > 3000 nM; in data set [5] it was < 1000 nM.
As for `C#Cc1cc(=O)n2c3nc(ncc13)Nc1ccc(N3CCN(C)CC3)c(c1)CCNC(=O)C2` [Example 227, 1^5-Ethynyl-3^4-(4-Methylpiperazin-1-yl)-1^7,1^8-dihydro-2,6-diaza-1(2,8)-pyrido[2,3-d]pyrimidina-3(1,3)-benzenacyclooctaphane-1^7,7-dione], the IC50 was > 3000 nM in data set [2], > 3000 nM in data set [3], > 3000 nM in data set [4] and 1000 to 10000 nM in data set [5].
As for `C#Cc1cc(=O)n2c3nc(ncc13)Nc1ccc(N3CCN(C)CC3)c(c1)OCCCCC2C` (stereo not shown) [Example 228, 1^5-Ethynyl-9-methyl-3^4-(4-methylpiperazin-1-yl)-1^7,1^8-dihydro-4-oxa-2-aza-1(2,8)-pyrido[2,3-d]pyrimidina-3(1,3)-benzenacyclononaphan-17-one], the 50% inhibitory concentration (IC50) in data set [2] is < 500 nM; in data set [3], < 500 nM; in data set [4], > 3000 nM; in data set [5], 1000 to 10000 nM.
For `C#Cc1c(C)c(=O)n2c3nc(ncc13)Nc1ccc(N3CCN(C)CC3)c(c1)OCCCCC2` [Example 229, 1^5-Ethynyl-1^6-Methyl-3^4-(4-methylpiperazin-1-yl)-1^7,1^8-dihydro-4-oxa-2-aza-1(2,8)-pyrido[2,3-d]pyrimidina-3(1,3)-benzenacyclononaphan-1^7-one], the IC50 was < 500 nM in data set [2], < 500 nM in data set [3], < 500 nM in data set [4] and < 1000 nM in data set [5].
Regarding `C#Cc1cc(=O)n2c3nc(ncc13)Nc1ccc(N3CCN(C)CC3)c(c1)OCCCCCC2` [Example 230, 1^5-ethynyl-3^4-(4-methylpiperazin-1-yl)-1^7,1^8-dihydro-4-oxa-2-aza-1(2,8)-pyrido[2,3-d]pyrimidina-3(1,3)-benzenacyclodecaphan-1^7-one], the IC50 in data set [2] is < 500 nM; in data set [3] it was < 500 nM; in data set [4], 1000 to 3000 nM; in data set [5] it was < 1000 nM.
On to `C#Cc1cc(=O)n2c3nc(ncc13)Nc1ccc(N3CCN(C)CC3)c(c1)COCCCC2` [Example 231, 1^5-Ethynyl-3^4-(4-methylpiperazin-1-yl)-1^7,1^8-dihydro-5-oxa-2-aza-1(2,8)-pyrido[2,3-d]pyrimidina-3(1,3)-benzenacyclononaphan-1^7-one], for which the IC50 in data set [2] is < 500 nM; in data set [3] it was < 500 nM; in data set [4] it was 1000 to 3000 nM; in data set [5] it was < 1000 nM.
With `C#Cc1cc(=O)n2c3nc(ncc13)Nc1ccc(N3CCN(C)CC3)c(c1)OCCOCC2` [Example 232, 1^5-Ethynyl-3^4-(4-Methylpiperazin-1-yl)-1^7,1^8-dihydro-4,7-dioxa-2-aza-1(2,8)-pyrido[2,3-d]pyrimidina-3(1,3)-benzenacyclononaphan-1^7-one], the half-maximal inhibitory concentration (IC50) in data set [2] was < 500 nM; in data set [3], < 500 nM; in data set [4], > 3000 nM; in data set [5], < 1000 nM.
In the case of `C#Cc1cc(=O)n2c3nc(ncc13)Nc1ccc(N3CCN(C)CC3)c(c1)S(=O)(=O)NCCC2` [Example 234, 1^5-Ethynyl-3^4-(4-methylpiperazin-1-yl)-1^7,1^8-dihydro-4-thia-2,5-diaza-1(2,8)-pyrido[2,3-d]pyrimidina-3(1,3)-benzenacyclooctaphan-1^7-one 4,4-dioxide], the IC50 was 1000 to 3000 nM in data set [2], 1000 to 3000 nM in data set [3], > 3000 nM in data set [4] and < 1000 nM in data set [5].
Regarding `C#Cc1cc(=O)n2c3nc(ncc13)Nc1ccc(N3CCN(C(C)C)CC3)c(c1)NC(=O)CCC2` [Example 235, 1^5-Ethynyl-3^4-(4-isopropylpiperazin-1-yl)-1^7,1^8-dihydro-2,4-diaza-1(2,8)-pyrido[2,3-d]pyrimidina-3(1,3)-benzenacyclooctaphane-1^7,5-dione], the IC50 was < 500 nM in data set [2], < 500 nM in data set [3], 500 to 1000 nM in data set [4] and < 1000 nM in data set [5].
As to `C#Cc1cc(=O)n2c3nc(ncc13)Nc1ccc(N3CCN(CCOC)CC3)c(c1)NC(=O)CCC2` [Example 236, 1^5-Ethynyl-3^4-(4-(2-methoxyethyl)piperazin-1-yl)-1^7,1^8-dihydro-2,4-diaza-1(2,8)-pyrido[2,3-d]pyrimidina-3(1,3)-benzenacyclooctaphane-1^7,5-dione], the IC50 in data set [2] is < 500 nM; in data set [3], < 500 nM; in data set [4] it was 1000 to 3000 nM; in data set [5], < 1000 nM.
For the compound `C#Cc1cc(=O)n2c3nc(ncc13)Nc1ccc(N3CCN(C)CC3)c(c1)CNC(=O)CCC2` [Example 237, 1^5-Ethynyl-3^4-(4-methylpiperazin-1-yl)-1^7,1^8-dihydro-2,5-diaza-1(2,8)-pyrido[2,3-d]pyrimidina-3(1,3)-benzenacyclononaphane-1^7,6-dione], the IC50 in data set [2] was < 500 nM; in data set [3] it was 500 to 1000 nM; in data set [4], > 3000 nM; in data set [5], < 1000 nM.
The matching figures for `C#Cc1cc(=O)n2c3nc(ncc13)Nc1ccc(N3CCCN(C)CC3)c(c1)NC(=O)CCC2` [Example 238, 1^5-Ethynyl-3^4-(4-methyl-1,4-diazepan-1-yl)-1^7,1^8-dihydro-2,4-diaza-1(2,8)-pyrido[2,3-d]pyrimidina-3(1,3)-benzenacyclooctaphane-1^7,5-dione]: < 500 nM, < 500 nM, > 3000 nM and < 1000 nM.
On the same counts, the results for `C#Cc1cc(=O)n2c3nc(ncc13)Nc1ccc(N3CCN(C)CC3)c(c1)OCCC[C@H]2C` [Example 239, (R)-1^5-ethynyl-8-methyl-3^4-(4-methylpiperazin-1-yl)-1^7,1^8-dihydro-4-oxa-2-aza-1(2,8)-pyrido[2,3-d]pyrimidina-3(1,3)-benzenacyclooctaphan-1^7-one] are < 500 nM, < 500 nM, > 3000 nM and < 1000 nM.
The matching figures for `C#Cc1cc(=O)n2c3nc(ncc13)Nc1ccc(N3CCN(C)CC3)c(c1)CCOCC2` [Example 240, 1^5-Ethynyl-3^4-(4-methylpiperazin-1-yl)-1^7,1^8-dihydro-6-oxa-2-aza-1(2,8)-pyrido[2,3-d]pyrimidina-3(1,3)-benzenacyclooctaphan-1^7-one]: < 500 nM, < 500 nM, 1000 to 3000 nM and < 1000 nM.
For the compound `C#Cc1cc(=O)n2c3nc(ncc13)Nc1ccc(N3CCN(CCOC)CC3)c(c1)OCCCC2` [Example 241, 1^5-Ethynyl-3^4-(4-(2-methoxyethyl)piperazin-1-yl)-1^7,1^8-dihydro-4-oxa-2-aza-1(2,8)-pyrido[2,3-d]pyrimidina-3(1,3)-benzenacyclooctaphan-1^7-one], the IC50 in data set [2] is < 500 nM; in data set [3] it was < 500 nM; in data set [4], 500 to 1000 nM; in data set [5], < 1000 nM.

The values above are taken from patent publication US20260137703A1, “2-AMINO-PYRIDO[2,3-D]PYRIMIDIN-7(8H)-ONE AND 7-AMINO-1-PYRIMIDO[4,5-D]PYRIMIDIN-2(1 H)-ONE DERIVATIVES AS EGFR INHIBITORS FOR THE TREATMENT OF CANCER” (Cancer Research Technology Limited, priority 2022, published 2026).
